Results from PubChem BioAssay AID248 (DTP/NCI, 2004).
Several values for one entry are separate records, joined by “and”; a condition that tells them apart may be missing. Equal entries are not always repeated. Toxic doses and inconclusive results are not listed. Rule as the data show it: active = T/C of 150% or more; inactive = T/C below 125%.

Tested on: L1210 leukemia ip in BDF1 mice, survival T/C
Assay: NCI In Vivo Anticancer Drug Screen. Data for tumor model L1210 Leukemia (intraperitoneal) in B6D2F1 (BDF1) mice
Conditions: endpoint: mean survival time, higher = longer survival
Outline: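 In this screen, tumor-bearing mice given compound are compared to those given vehicle, and their survival values are reported as a treated-to-control quotient.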

[1] = dose: 25.0 mg/kg/injection, schedule: Q04DX003 (ip), vehicle: Klucel (hydroxypropylcellulose) (HPC)
[2] = dose: 50.0 mg/kg/injection, schedule: Q04DX003 (ip), vehicle: Klucel (hydroxypropylcellulose) (HPC)
[3] = dose: 25.0 mg/kg/injection, schedule: Q01DX009 (ip), vehicle: Klucel (hydroxypropylcellulose) (HPC)
[4] = dose: 50.0 mg/kg/injection, schedule: Q01DX009 (ip), vehicle: Klucel (hydroxypropylcellulose) (HPC)
[5] = dose: 100.0 mg/kg/injection, schedule: Q04DX002 (ip), vehicle: Klucel (hydroxypropylcellulose) (HPC)
[6] = dose: 200.0 mg/kg/injection, schedule: Q04DX002 (ip), vehicle: Klucel (hydroxypropylcellulose) (HPC)
[7] = dose: 400.0 mg/kg/injection, schedule: Q04DX002 (ip), vehicle: Klucel (hydroxypropylcellulose) (HPC)
[8] = dose: 25.0 mg/kg/injection, schedule: Q01DX009 (ip), vehicle: saline
[9] = dose: 50.0 mg/kg/injection, schedule: Q01DX009 (ip), vehicle: saline
[10] = dose: 100.0 mg/kg/injection, schedule: Q04DX003 (ip), vehicle: saline with Tween-80
[11] = dose: 100.0 mg/kg/injection, schedule: Q01DX001 (ip), vehicle: saline
[12] = dose: 200.0 mg/kg/injection, schedule: Q01DX001 (ip), vehicle: saline
[13] = dose: 400.0 mg/kg/injection, schedule: Q01DX001 (ip), vehicle: saline
[14] = dose: 100.0 mg/kg/injection, schedule: Q01DX009 (ip), vehicle: saline with Tween-80
[15] = dose: 200.0 mg/kg/injection, schedule: Q01DX009 (ip), vehicle: saline with Tween-80
[16] = dose: 200.0 mg/kg/injection, schedule: Q04DX003 (ip), vehicle: saline with Tween-80
[17] = dose: 400.0 mg/kg/injection, schedule: Q04DX003 (ip), vehicle: saline with Tween-80

Measured: T/C

CCC1CCCCN1 (stereo not given)
inactive: dose: 10.0 mg/kg/injection, schedule: Q01DX001 (ip), vehicle: saline 105 % of control | dose: 10.0 mg/kg/injection, schedule: Q01DX009 (ip), vehicle: saline 108 % of control and 111 % of control | dose: 10.0 mg/kg/injection, schedule: Q04DX002 (ip), vehicle: saline 95 % of control and 106 % of control | dose: 10.0 mg/kg/injection, schedule: Q04DX003 (ip), vehicle: saline 103 % of control | dose: 20.0 mg/kg/injection, schedule: Q01DX001 (ip), vehicle: saline 120 % of control | dose: 20.0 mg/kg/injection, schedule: Q01DX009 (ip), vehicle: saline 104 % of control | dose: 20.0 mg/kg/injection, schedule: Q04DX002 (ip), vehicle: saline 103 % of control | dose: 20.0 mg/kg/injection, schedule: Q04DX003 (ip), vehicle: saline 101 % of control | dose: 40.0 mg/kg/injection, schedule: Q01DX001 (ip), vehicle: saline 103 % of control | dose: 40.0 mg/kg/injection, schedule: Q01DX009 (ip), vehicle: saline 104 % of control | dose: 40.0 mg/kg/injection, schedule: Q04DX002 (ip), vehicle: saline 94 % of control and 98 % of control | dose: 40.0 mg/kg/injection, schedule: Q04DX003 (ip), vehicle: saline 97 % of control

Cc1ccc([N+](=O)[O-])cc1N=Nc1ccc(O)c(C(=O)O)c1
inactive: [1] 93 % of control | [2] 96 % of control | dose: 100.0 mg/kg/injection, schedule: Q04DX003 (ip), vehicle: Klucel (hydroxypropylcellulose) (HPC) 96 % of control and 88 % of control

O=C1C2C(C(=O)N1c1cccc3ccccc13)C1(Cl)C(Cl)=C(Cl)C2(Cl)C1(Cl)Cl (stereo not given)
inactive: dose: 12.5 mg/kg/injection, schedule: Q01DX009 (ip), vehicle: Klucel (hydroxypropylcellulose) (HPC) 103 % of control | [3] 104 % of control | [4] 96 % of control

O=P(O)(N(CCCl)CCCl)N1CCN(Cc2ccccc2)CC1
inactive: dose: 10.0 mg/kg/injection, schedule: Q01DX Z (ip), vehicle: other 95 % of control | dose: 30.0 mg/kg/injection, schedule: Q01DX Z (ip), vehicle: other 105 % of control | dose: 100.0 mg/kg/injection, schedule: Q01DX Z (ip), vehicle: other 108 % of control

CNC(=O)c1ccc[n+](Cc2ccccc2)c1
inactive: dose: 18.75 mg/kg/injection, schedule: Q01DX009 (ip), vehicle: saline 94 % of control | dose: 37.5 mg/kg/injection, schedule: Q01DX009 (ip), vehicle: saline 100 % of control | dose: 37.5 mg/kg/injection, schedule: Q04DX003 (ip), vehicle: saline 97 % of control | dose: 75.0 mg/kg/injection, schedule: Q01DX001 (ip), vehicle: saline 106 % of control | dose: 75.0 mg/kg/injection, schedule: Q01DX009 (ip), vehicle: saline 92 % of control | dose: 75.0 mg/kg/injection, schedule: Q04DX003 (ip), vehicle: saline 101 % of control | dose: 150.0 mg/kg/injection, schedule: Q01DX001 (ip), vehicle: saline 101 % of control | dose: 150.0 mg/kg/injection, schedule: Q04DX003 (ip), vehicle: saline 100 % of control

CCCCCCCCCCN=C(N)N/C(N)=N/S(=O)(=O)c1ccc(OCCCCCCCCC)cc1
inactive: [5] 97 % of control | [6] 89 % of control | [7] 89 % of control

CN(C)C=Nc1ccc(Cl)c(Cl)c1
inactive: dose: 12.5 mg/kg/injection, schedule: Q01DX009 (ip), vehicle: saline 90 % of control | [8] 90 % of control | [9] 90 % of control | [10] 97 % of control

CC(=O)C1=C(O)C2C3c4c[nH]c5cccc(c45)CC3C(C)(C)N2C1=O (stereo not given)
inactive: dose: 0.25 mg/kg/injection, schedule: Q01DX001 (ip), vehicle: saline 101 % of control | dose: 0.5 mg/kg/injection, schedule: Q01DX001 (ip), vehicle: saline 103 % of control | dose: 1.0 mg/kg/injection, schedule: Q01DX001 (ip), vehicle: saline 101 % of control | dose: 2.0 mg/kg/injection, schedule: Q01DX001 (ip), vehicle: saline 105 % of control

O=c1cc(Nc2cccc3cc4ccccc4cc23)[nH]c(=O)[nH]1
inactive: dose: 38.0 mg/kg/injection, schedule: Q01DX001 (ip), vehicle: Klucel (hydroxypropylcellulose) (HPC) 93 % of control | dose: 75.0 mg/kg/injection, schedule: Q01DX001 (ip), vehicle: Klucel (hydroxypropylcellulose) (HPC) 93 % of control | dose: 150.0 mg/kg/injection, schedule: Q01DX001 (ip), vehicle: Klucel (hydroxypropylcellulose) (HPC) 90 % of control

C[N+](C)(C)CCOc1ccc(Cl)cc1
inactive: dose: 12.0 mg/kg/injection, schedule: Q04DX003 (ip), vehicle: Klucel (hydroxypropylcellulose) (HPC) 91 % of control | [3] 103 % of control | [1] 93 % of control | [4] 106 % of control | [2] 96 % of control | dose: 100.0 mg/kg/injection, schedule: Q01DX009 (ip), vehicle: Klucel (hydroxypropylcellulose) (HPC) 98 % of control

COc1ccc(NC(=O)ON(C)C)cc1
inactive: dose: 100.0 mg/kg/injection, schedule: Q04DX002 (ip), vehicle: DMSO 111 % of control | dose: 200.0 mg/kg/injection, schedule: Q04DX002 (ip), vehicle: DMSO 108 % of control | dose: 400.0 mg/kg/injection, schedule: Q04DX002 (ip), vehicle: DMSO 101 % of control

O=C(OC1COC(SCc2ccccc2)C(OC(=O)c2ccccc2)C1OC(=O)c1ccccc1)c1ccccc1 (stereo not given)
inactive: [11] 98 % of control | [12] 110 % of control | [13] 97 % of control

O=C(CSc1ccc([N+](=O)[O-])cc1)c1ccccc1
inactive: dose: 50.0 mg/kg/injection, schedule: Q01DX001 (ip), vehicle: saline 104 % of control | [11] 98 % of control | [12] 91 % of control | [13] 96 % of control

O=C(Nc1nccs1)Nc1cccc2ccccc12
inactive: [5] 93 % of control | [6] 93 % of control | [7] 93 % of control

C(=NCC1CCC(CN=Cc2ccco2)CC1)c1ccco1 (stereo not given)
inactive: [14] 94 % of control | [10] 109 % of control | [15] 98 % of control | [16] 102 % of control | dose: 400.0 mg/kg/injection, schedule: Q01DX009 (ip), vehicle: saline with Tween-80 100 % of control | [17] 106 % of control

CSc1cc(C)c(OC(=O)Nc2cc(C)ccc2C)c(C)c1
inactive: [8] 98 % of control | [9] 93 % of control | dose: 100.0 mg/kg/injection, schedule: Q01DX009 (ip), vehicle: saline 91 % of control | dose: 100.0 mg/kg/injection, schedule: Q04DX003 (ip), vehicle: saline 107 % of control | dose: 200.0 mg/kg/injection, schedule: Q01DX009 (ip), vehicle: saline 91 % of control | dose: 200.0 mg/kg/injection, schedule: Q04DX003 (ip), vehicle: saline 98 % of control | dose: 400.0 mg/kg/injection, schedule: Q01DX009 (ip), vehicle: saline 106 % of control | dose: 400.0 mg/kg/injection, schedule: Q04DX003 (ip), vehicle: saline 95 % of control

O=[N+]([O-])CC(OCCCc1ccccc1)C(Cl)(Cl)Cl (stereo not given)
inactive: [14] 107 % of control | [10] 93 % of control | [15] 109 % of control | [16] 104 % of control | [17] 91 % of control

CC(=O)OCC1OCC(OC(C)=O)C(OC(C)=O)C1OC(C)=O (stereo not given)
inactive: [10] 94 % of control | [16] 98 % of control | [17] 98 % of control

COc1cc(-c2ccccc2)c([N+](=O)[O-])cc1[N+](=O)[O-]
inactive: dose: 100.0 mg/kg/injection, schedule: Q01DX001 (ip), vehicle: carboxymethylcellulose (CMC) 107 % of control | dose: 200.0 mg/kg/injection, schedule: Q01DX001 (ip), vehicle: carboxymethylcellulose (CMC) 110 % of control | dose: 400.0 mg/kg/injection, schedule: Q01DX001 (ip), vehicle: carboxymethylcellulose (CMC) 116 % of control

FC(F)C(F)(F)C(F)(F)C(F)(F)C(F)(F)C(F)(F)C(F)(F)F
inactive: [11] 97 % of control | [12] 100 % of control | [13] 95 % of control
